In US6737383B1, “Herbicidal oxadiazolidines” (priority 1999, dated 2004):

Key:
morningglory = experiment: Test B pre/postemergence morningglory; format: in vivo, Ipomoea hederacea; conditions: for Plant response rating, Morningglory: scale of 0 to 10 where 0 is no effect and 10 is complete control
Outline: (§1)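 Test chemicals in a non-phytotoxic solvent mixture with surfactant were sprayed preemergence onto planted seeds and postemergence onto plants 2 to 18 cm tall (1- to 4-leaf stage). After twelve to sixteen days in a greenhouse, injury was visually rated against untreated controls from 0 (no effect) to 10 (complete control).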

smallflower flatsedge = experiment: Test B flood test smallflower flatsedge; format: in vivo, Cyperus difformis
Outline: (§2)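 Read-out is a visual response score from 0 (no effect) to 10 (complete control), assigned by comparison with untreated controls. Treatment was applied at the 2-leaf stage, and plants stayed in the greenhouse for twelve to sixteen days before scoring.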

rice = experiment: Test B flood test rice; format: in vivo, Oryza sativa
Outline: as §2

rape = experiment: Test B pre/postemergence rape; format: in vivo, Brassica napus; conditions: for Plant response rating, Rape: scale of 0 to 10 where 0 is no effect and 10 is complete control
Outline: as §1

sugar beet = experiment: Test B pre/postemergence sugar beet; format: in vivo, Beta vulgaris; conditions: for Plant response rating, Sugarbeets: scale of 0 to 10 where 0 is no effect and 10 is complete control
Outline: as §1

blackgrass = experiment: Test B pre/postemergence blackgrass; format: in vivo, Alopecurus myosuroides
Outline: as §1

velvetleaf = experiment: Test B pre/postemergence velvetleaf; format: in vivo, Abutilon theophrasti; conditions: for Plant response rating, Velvetleaf: scale of 0 to 10 where 0 is no effect and 10 is complete control
Outline: as §1

giant foxtail = experiment: Test B pre/postemergence giant foxtail; format: in vivo, Setaria faberii
Outline: as §1

wild oat = experiment: Test B pre/postemergence wild oat; format: in vivo, Avena fatua; conditions: for Plant response rating, Wild oats: scale of 0 to 10 where 0 is no effect and 10 is complete control
Outline: as §1

pigweed = experiment: Test B pre/postemergence pigweed; format: in vivo, Amaranthus retroflexus; conditions: for Plant response rating, Redroot pigweed: scale of 0 to 10 where 0 is no effect and 10 is complete control
Outline: as §1

soybean = experiment: Test B pre/postemergence soybean; format: in vivo, Glycine max; conditions: for Plant response rating, Soybean: scale of 0 to 10 where 0 is no effect and 10 is complete control
Outline: as §1

cocklebur = experiment: Test B pre/postemergence cocklebur; format: in vivo, Xanthium strumarium
Outline: as §1

surinam grass = experiment: Test B pre/postemergence surinam grass; format: in vivo, Brachiaria decumbens
Outline: as §1

duck salad = experiment: Test B flood test duck salad; format: in vivo, Heteranthera limosa
Outline: as §2

wheat = experiment: Test B pre/postemergence wheat; format: in vivo, Triticum aestivum; conditions: for Plant response rating, Wheat: scale of 0 to 10 where 0 is no effect and 10 is complete control
Outline: as §1

corn = experiment: Test B pre/postemergence corn; format: in vivo, Zea mays
Outline: as §1

purple nutsedge = experiment: Test B pre/postemergence purple nutsedge; format: in vivo, Cyperus rotundus; conditions: for Plant response rating, Nutsedge: scale of 0 to 10 where 0 is no effect and 10 is complete control
Outline: as §1

bamyardgrass = experiment: Test B flood test barnyardgrass; format: in vivo, Echinochloa crus-galli
Outline: as §2

crabgrass = experiment: Test B pre/postemergence crabgrass; format: in vivo, Digitaria sanguinalis
Outline: as §1

[1] = Postemergence, Rate 250 g/ha, scale 0 to 10
[2] = Preemergence, Rate 250 g/ha, scale 0 to 10, 0 is no effect, 10 is complete control
[3] = Preemergence, Rate 500 g/ha, scale 0 to 10, 0 is no effect, 10 is complete control
[4] = Rate 62 g/ha, Postemergence, scale 0 to 10 (0 no effect, 10 complete control)
[5] = Rate 125 g/ha, Postemergence, scale 0 to 10, 0 is no effect, 10 is complete control
[6] = Rate 62 g/ha, flood test species, Pre-emergence, visual evaluation after twelve to sixteen days
[7] = Rate 125 g/ha, under heading Pre-emergence, flood test species, visual evaluation after twelve to sixteen days
[8] = Rate 250 g/ha, Pre-emergence (flood test species), scale 0 to 10, 0 is no effect, 10 is complete control
[9] = Rate 500 g/ha, Pre-emergence, flood test species, scale 0 to 10 (0 no effect, 10 complete control)
[10] = Postemergence, Rate 500 g/ha, scale of 0 to 10 where 0 is no effect and 10 is complete control
[11] = Preemergence, Rate 62 g/ha, scale of 0 to 10 where 0 is no effect and 10 is complete control
[12] = Preemergence, Rate 125 g/ha, scale of 0 to 10 where 0 is no effect and 10 is complete control

COC(=O)C(C)n1c(=O)on(C(=O)N(c2ccc(F)cc2F)C(C)C)c1=O (stereo not shown) [Compound 463]
3: Giant foxtail plant response rating (giant foxtail; [2])
4: Blackgrass plant response rating (blackgrass; [3])
5: Plant response rating, Redroot pigweed (pigweed; Preemergence, Rate 125 g/ha)
1: Soybean plant response rating (soybean; [1]) | Soybean plant response rating (soybean; [4]) | Soybean plant response rating (soybean; [5])
0: Plant response rating, Morningglory (morningglory; Preemergence, Rate 62 g/ha) | Plant response rating, Morningglory (morningglory; Preemergence, Rate 125 g/ha) | Morningglory plant response rating (morningglory; [2]) | Morningglory plant response rating (morningglory; [3]) | Morningglory plant response rating (morningglory; [4]) | Morningglory plant response rating (morningglory; [5]) | Plant response rating, S. Flatsedge (0 to 10 scale, 0 is no effect, 10 is complete control) (smallflower flatsedge; [6]) | S. Flatsedge plant response rating (0 to 10 scale, 0 is no effect, 10 is complete control) (smallflower flatsedge; [7]) | S. Flatsedge plant response rating (smallflower flatsedge; [8]) | S. Flatsedge plant response rating (smallflower flatsedge; [9]) | Plant response rating, Rice (0 to 10 scale, 0 is no effect, 10 is complete control) (rice; [6]) | Rice plant response rating (0 to 10 scale, 0 is no effect, 10 is complete control) (rice; [7]) | Rice plant response rating (rice; [8]) | Rice plant response rating (rice; [9]) | Rape plant response rating (rape; [1]) | Plant response rating, Rape (rape; Preemergence, Rate 62 g/ha) | Plant response rating, Rape (rape; Preemergence, Rate 125 g/ha) | Rape plant response rating (rape; [2]) | Rape plant response rating (rape; [3]) | Rape plant response rating (rape; [4]) | Rape plant response rating (rape; [5]) | Sugarbeets plant response rating (sugar beet; [1]) | Plant response rating, Sugarbeets (sugar beet; Preemergence, Rate 62 g/ha) | Plant response rating, Sugarbeets (sugar beet; Preemergence, Rate 125 g/ha) | Sugarbeets plant response rating (sugar beet; [2]) | Sugarbeets plant response rating (sugar beet; [3]) | Sugarbeets plant response rating (sugar beet; [4]) | Sugarbeets plant response rating (sugar beet; [5]) | Blackgrass plant response rating (blackgrass; [1]) | Plant response rating, Blackgrass (blackgrass; [11]) | Plant response rating, Blackgrass (blackgrass; [12]) | Blackgrass plant response rating (blackgrass; [4]) | Blackgrass plant response rating (blackgrass; [5]) | Velvetleaf plant response rating (velvetleaf; [1]) | Plant response rating, Velvetleaf (velvetleaf; Preemergence, Rate 62 g/ha) | Plant response rating, Velvetleaf (velvetleaf; Preemergence, Rate 125 g/ha) | Velvetleaf plant response rating (velvetleaf; [2]) | Velvetleaf plant response rating (velvetleaf; [4]) | Velvetleaf plant response rating (velvetleaf; [5]) | Plant response rating, Giant foxtail (giant foxtail; [11]) | Plant response rating, Giant foxtail (giant foxtail; [12]) | Giant foxtail plant response rating (giant foxtail; [4]) | Giant foxtail plant response rating (giant foxtail; [5]) | Wild oats plant response rating (wild oat; [1]) | Plant response rating, Wild oats (wild oat; Preemergence, Rate 62 g/ha) | Plant response rating, Wild oats (wild oat; Preemergence, Rate 125 g/ha) | Wild oats plant response rating (wild oat; [2]) | Wild oats plant response rating (wild oat; [3]) | Wild oats plant response rating (wild oat; [4]) | Wild oats plant response rating (wild oat; [5]) | Redroot pigweed plant response rating (pigweed; [1]) | Redroot pigweed plant response rating (pigweed; [4]) | Redroot pigweed plant response rating (pigweed; [5]) | Plant response rating, Soybean (soybean; Preemergence, Rate 62 g/ha) | Plant response rating, Soybean (soybean; Preemergence, Rate 125 g/ha) | Soybean plant response rating (soybean; [2]) | Soybean plant response rating (soybean; [3]) | Cocklebur plant response rating (cocklebur; [1]) | Plant response rating, Cocklebur (cocklebur; [11]) | Plant response rating, Cocklebur (cocklebur; [12]) | Cocklebur plant response rating (cocklebur; [2]) | Cocklebur plant response rating (cocklebur; [3]) | Cocklebur plant response rating (cocklebur; [4]) | Cocklebur plant response rating (cocklebur; [5]) | B. signalgrass plant response rating (surinam grass; Postemergence, Rate 250 g/ha, scale 0 to 10, 0 no effect, 10 complete control) | B. signalgrass plant response rating (surinam grass; [10]) | Plant response rating, B. signalgrass (surinam grass; [11]) | Plant response rating, B. signalgrass (surinam grass; [12]) | B. signalgrass plant response rating (surinam grass; [2]) | B. signalgrass plant response rating (surinam grass; [4]) | B. signalgrass plant response rating (surinam grass; [5]) | Plant response rating, Ducksalad (0 to 10 scale, 0 is no effect, 10 is complete control) (duck salad; [6]) | Ducksalad plant response rating (0 to 10 scale, 0 is no effect, 10 is complete control) (duck salad; [7]) | Ducksalad plant response rating (duck salad; [8]) | Ducksalad plant response rating (duck salad; [9]) | Wheat plant response rating (wheat; [1]) | Plant response rating, Wheat (wheat; Preemergence, Rate 62 g/ha) | Plant response rating, Wheat (wheat; Preemergence, Rate 125 g/ha) | Wheat plant response rating (wheat; [2]) | Wheat plant response rating (wheat; [3]) | Wheat plant response rating (wheat; [4]) | Wheat plant response rating (wheat; [5]) | Corn plant response rating (corn; [1]) | Corn plant response rating (corn; [10]) | Plant response rating, Corn (corn; [11]) | Plant response rating, Corn (corn; [12]) | Corn plant response rating (corn; [2]) | Corn plant response rating (corn; [3]) | Corn plant response rating (corn; [4]) | Corn plant response rating (corn; [5]) | Nutsedge plant response rating (purple nutsedge; [1]) | Plant response rating, Nutsedge (purple nutsedge; Preemergence, Rate 62 g/ha) | Plant response rating, Nutsedge (purple nutsedge; Preemergence, Rate 125 g/ha) | Nutsedge plant response rating (purple nutsedge; [2]) | Nutsedge plant response rating (purple nutsedge; [3]) | Nutsedge plant response rating (purple nutsedge; [4]) | Nutsedge plant response rating (purple nutsedge; [5]) | Plant response rating, Barnyardgrass (0 to 10 scale, 0 is no effect, 10 is complete control) (bamyardgrass; [6]) | Barnyardgrass plant response rating (0 to 10 scale, 0 is no effect, 10 is complete control) (bamyardgrass; [7]) | Barnyardgrass plant response rating (bamyardgrass; [8]) | Barnyardgrass plant response rating (bamyardgrass; [9]) | Plant response rating, Crabgrass (crabgrass; [11]) | Plant response rating, Crabgrass (crabgrass; [12]) | Crabgrass plant response rating (crabgrass; [4]) | Crabgrass plant response rating (crabgrass; [5])
6: Giant foxtail plant response rating (giant foxtail; [1]) | Giant foxtail plant response rating (giant foxtail; [10])
10: Giant foxtail plant response rating (giant foxtail; [3]) | Redroot pigweed plant response rating (pigweed; [2]) | Redroot pigweed plant response rating (pigweed; [3])
2: Morningglory plant response rating (morningglory; [1]) | Blackgrass plant response rating (blackgrass; [10]) | Blackgrass plant response rating (blackgrass; [2]) | Velvetleaf plant response rating (velvetleaf; [3]) | Plant response rating, Redroot pigweed (pigweed; Preemergence, Rate 62 g/ha) | Cocklebur plant response rating (cocklebur; [10]) | B. signalgrass plant response rating (surinam grass; [3]) | Crabgrass plant response rating (crabgrass; [1]) | Crabgrass plant response rating (crabgrass; [10]) | Crabgrass plant response rating (crabgrass; [2]) | Crabgrass plant response rating (crabgrass; [3])
